Patent US4195171A, “Derivatives of an antibiotic XK-62-2 and process for the production thereof” (Abbott Laboratories, priority 1975, dated 1980)
≈ marks a conversion by molar mass, not a printed value. Read-outs that look alike come from different tables or passages of the source.

Assays:
Escherichia coli T-2 = experiment: Antibacterial spectrum, MIC by agar dilution method; assay type: cell-based; conditions: T2, pH 7.2, read-out: Minimum Inhibitory Concentration
Excerpt: (§1) XK-62-2, 1-N-[L-(-)-α-hydroxy-γ-aminobutyryl] XK-62-2, Compounds (I-1), (I-2), (II-1) and (II-2) against various Gram-negative and Gram-positive bacteria determined by agar dilution method at pH 7.2.

Proteus vulgaris 6897 = experiment: as above; assay type: cell-based; conditions: pH 7.2, read-out: Minimum Inhibitory Concentration
Excerpt: as §1

[1] = tested on: Pseudomonas aeruginosa No. 12; experiment: as above; assay type: cell-based; conditions: pH 7.2, read-out: Minimum Inhibitory Concentration
Excerpt: as §1

[2] = tested on: Salmonella typhimurium E-9; experiment: as above; assay type: cell-based; conditions: Salmonella enterica, pH 7.2, read-out: Minimum Inhibitory Concentration
Excerpt: as §1

Sarcina lutea ATCC 9341 = experiment: as above; assay type: cell-based; conditions: Micrococcus luteus, ATCC9341, pH 7.2, read-out: Minimum Inhibitory Concentration
Excerpt: as §1

Serratia sp T-55 = experiment: as above; assay type: cell-based
Excerpt: as §1

[3] = tested on: bacillus subtilis ATCC 6633; experiment: as above; assay type: cell-based; conditions: ATCC6633, pH 7.2, read-out: Minimum Inhibitory Concentration
Excerpt: as §1

[4] = tested on: Escherichia coli KY Z-338; experiment: as above; assay type: cell-based; conditions: KYZ338, pH 7.2, strain produces gentamicin adenyltransferase, read-out: Minimum Inhibitory Concentration
Excerpt: as §1
(§2) ^4 produces gentamicin adenyltransferase

[5] = tested on: Klebsiella pneumoniae Y-58; experiment: as above; assay type: cell-based; conditions: Y58, pH 7.2, strain produces gentamicin adenyltransferase, read-out: Minimum Inhibitory Concentration
Excerpt: as §1, §2

[6] = tested on: Klebsiella pneumoniae Y-60; experiment: as above; assay type: cell-based; conditions: Y60, pH 7.2, strain produces gentamicin adenyltransferase, read-out: Minimum Inhibitory Concentration
Excerpt: as §1, §2

[7] = Acute toxicity (LD50) in mice; conditions: mouse, in vivo, route not stated
Excerpt: XK-62-2, Compounds (I-2), (II-1) and (II-2) in mice.

[8] = T55, agar dilution, pH 7.2, read-out: Minimum Inhibitory Concentration

SMILES | MIC (Escherichia coli T-2) [µg/mL] | MIC (Proteus vulgaris 6897) [µg/mL] | MIC [1] [µg/mL] | MIC [2] [µg/mL] | MIC (Sarcina lutea ATCC 9341) [µg/mL] | MIC (Serratia sp T-55; [8]) [µg/mL] | MIC [3] [µg/mL] | MIC [4] [µg/mL] | MIC [5] [µg/mL] | MIC [6] [µg/mL] | LD50 [7] [mg/kg] | MIC (Serratia sp T-55; T55, pH 7.2, read-out: Minimum Inhibitory Concentration) [µg/mL]
CNCC1CCC(N)C(OC2C(N)CC(NC(=O)C(O)CN)C(OC3OCC(C)(O)C(NC)C3O)C2O)O1 (racemic) [1-N-(DL-α-hydroxy-β-aminopropionyl) XK-62-2, reference compound] | 0.4 (≈ 0.726 µM) | 12.5 (≈ 22.7 µM) | 0.78 (≈ 1.42 µM) | 0.4 (≈ 0.726 µM) | 0.4 (≈ 0.726 µM) | 1.56 (≈ 2.83 µM) | 0.2 (≈ 0.363 µM) | 0.2 (≈ 0.363 µM) | 0.4 (≈ 0.726 µM) | 0.4 (≈ 0.726 µM) | 185 | –
CC1(O)COC(OC2C(NC(=O)C(O)CN)CC(N)C(OC3OC(CN)CCC3N)C2O)C(O)C1N (racemic) [Compound I-1, 3"-N, 6'-N-didemethyl-1-N-(DL-α-hydroxy-β-aminopropionyl) XK-62-2] | 1.56 (≈ 2.99 µM) | 6.25 (≈ 12 µM) | 0.4 (≈ 0.765 µM) | 0.78 (≈ 1.49 µM) | 0.78 (≈ 1.49 µM) | – | 0.1 (≈ 0.191 µM) | 0.78 (≈ 1.49 µM) | 0.78 (≈ 1.49 µM) | 0.78 (≈ 1.49 µM) | – | 3.12 (≈ 5.97 µM)
CNCC1CCC(N)C(OC2C(N)CC(NC(=O)C(O)CN)C(OC3OCC(C)(O)C(N)C3O)C2O)O1 (racemic) [II-1, 3"-N-demethyl-1-N-(DL-α-hydroxy-β-aminopropionyl) XK-62-2] | 1.56 (≈ 2.91 µM) | 12.5 (≈ 23.3 µM) | 0.78 (≈ 1.45 µM) | 0.78 (≈ 1.45 µM) | 1.56 (≈ 2.91 µM) | 1.56 (≈ 2.91 µM) | 0.2 (≈ 0.373 µM) | 0.78 (≈ 1.45 µM) | 0.78 (≈ 1.45 µM) | 1.56 (≈ 2.91 µM) | 175 | –
CNCC1CCC(N)C(OC2C(N)CC(NC(=O)C(O)CCN)C(OC3OCC(C)(O)C(NC)C3O)C2O)O1 (single isomer, unassigned) [1-N-[L-(-)-α-hydroxy-γ-aminobutyryl] XK-62-2, reference compound] | 0.4 (≈ 0.708 µM) | 1.56 (≈ 2.76 µM) | 0.4 (≈ 0.708 µM) | 0.2 (≈ 0.354 µM) | 0.2 (≈ 0.354 µM) | 0.78 (≈ 1.38 µM) | 0.1 (≈ 0.177 µM) | 0.2 (≈ 0.354 µM) | 0.2 (≈ 0.354 µM) | 0.2 (≈ 0.354 µM) | 180 | –
CC1(O)COC(OC2C(NC(=O)C(O)CCN)CC(N)C(OC3OC(CN)CCC3N)C2O)C(O)C1N (single isomer, unassigned) [Compound I-2, 3"-N, 6'-N-didemethyl-1-N-[L-(-)-α-hydroxy-γ-aminobutyryl] XK-62-2] | 0.78 (≈ 1.45 µM) | 3.12 (≈ 5.81 µM) | 0.4 (≈ 0.745 µM) | 0.4 (≈ 0.745 µM) | 0.78 (≈ 1.45 µM) | 3.12 (≈ 5.81 µM) | 0.1 (≈ 0.186 µM) | 0.4 (≈ 0.745 µM) | 0.78 (≈ 1.45 µM) | 0.78 (≈ 1.45 µM) | 200 | –
CNCC1CCC(N)C(OC2C(N)CC(NC(=O)C(O)CCN)C(OC3OCC(C)(O)C(N)C3O)C2O)O1 (single isomer, unassigned) [II-2, 3"-N-demethyl-1-N-[L-(-)-α-hydroxy-γ-aminobutyryl] XK-62-2] | 0.78 (≈ 1.42 µM) | 6.25 (≈ 11.4 µM) | 0.78 (≈ 1.42 µM) | 0.78 (≈ 1.42 µM) | 1.56 (≈ 2.83 µM) | 1.56 (≈ 2.83 µM) | 0.2 (≈ 0.363 µM) | 0.4 (≈ 0.726 µM) | 0.4 (≈ 0.726 µM) | 0.78 (≈ 1.42 µM) | 250 | –
